Results from patent US11066414B2, “Cot modulators and methods of use thereof” (Gilead Sciences, Inc., priority 2015, dated 2021).
Read-outs that look alike come from different tables or passages of the source.

How the values were obtained:
[1] = tested on: TNFα; assay: Cot Monocyte TNFα Cell Based Assay
[2] = target: Human Cot (Homo sapiens (Human), UniProt P41279); assay: High Throughput Cot Biochemical Assay
[3] = Homo sapiens, Monocyte, read-out: EC50 TNF, LPS-stimulated human monocytes, TNFα TR-FRET
[4] = IC50 HTRF, Cot HTRF (TR-FRET KinEASE) biochemical assay, 400 μM ATP
[5] = Homo sapiens, Monocyte, read-out: EC50 TNF, LPS-stimulated human monocytes, TNFα
[6] = IC50 HTRF, Cot HTRF (TR-FRET) biochemical assay
[7] = read-out: EC50 TNF, LPS-stimulated human monocytes, TNFα
[8] = read-out: IC50 HTRF, Cot HTRF (TR-FRET) biochemical assay

Sequence of Human Cot (P41279 30-397): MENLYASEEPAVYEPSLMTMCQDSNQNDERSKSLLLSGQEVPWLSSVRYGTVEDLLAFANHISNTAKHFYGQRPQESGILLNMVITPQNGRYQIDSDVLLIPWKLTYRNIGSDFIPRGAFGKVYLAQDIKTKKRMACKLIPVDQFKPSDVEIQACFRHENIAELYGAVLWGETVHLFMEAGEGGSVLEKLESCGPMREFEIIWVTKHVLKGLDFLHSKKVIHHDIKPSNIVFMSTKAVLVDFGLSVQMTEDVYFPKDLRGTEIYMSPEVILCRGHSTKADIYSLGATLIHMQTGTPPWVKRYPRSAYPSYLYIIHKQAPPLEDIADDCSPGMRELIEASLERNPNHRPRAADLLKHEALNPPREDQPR

With `C[C@@H](CF)n1cc([C@@H](Nc2cc(C#N)c3ncc(C#N)c(NCC(C)(C)C)c3c2)c2cccc3c(=O)n(C)ccc23)nn1` [Example 877, 6-(((S)-(1-((S)-1-fluoropropan-2-yl)-1H-1,2,3-triazol-4-yl)(2-methyl-1-oxo-1,2-dihydroisoquinolin-5-yl)methyl)amino)-4-(neopentylamino)quinoline-3,8-dicarbonitrile] as the compound, how does the EC50 [1, 3] read?
The EC50 was 34 nM.

What about the IC50 [2, 4] of the same compound?
Its IC50 is 2 nM.

How did the EC50 [1, 5] turn out when `N#CCC[C@@H](Nc1c(C#N)cnc2c(Cl)cc(N[C@H](c3cn(C4CC4)nn3)c3cccc4ncsc34)cc12)c1ccccc1` [Example 69, 6-(((S)-benzo[d]thiazol-7-yl(1-cyclopropyl-1H-1,2,3-triazol-4-yl)methyl)amino)-8-chloro-4-(((R)-3-cyano-1-phenylpropyl)amino)quinoline-3-carbonitrile] was run?
Its EC50 is 33 nM.

What about the IC50 [2, 6] of the same compound?
Its IC50 is 2 nM.

How did the EC50 [1, 5] turn out when `CC(C)(C)N1CCC(n2cc([C@@H](Nc3cc(Cl)c4ncc(C#N)c(Nc5ccc(F)c(Cl)c5)c4c3)c3ccc4c(c3)CNC4)nn2)CC1` [Example 57, (S)-6-(((1-(1-(tert-butyl)piperidin-4-yl)-1H-1,2,3-triazol-4-yl)(isoindolin-5-yl)methyl)amino)-8-chloro-4-((3-chloro-4-fluorophenyl)amino)quinoline-3-carbonitrile] was run?
Its EC50 is 5990 nM.

What about the IC50 [2, 6] of the same compound?
Its IC50 is 60 nM.

For `CC(C)(C)CNc1c(C#N)cnc2c(Cl)cc(N[C@H](c3cn([C@@H]4C[C@@H]4F)nn3)c3cccc4ncccc34)cc12` [Example 692, 8-chloro-6-(((SH l-((lR,2S)-2-fluorocyclopropyl)-1H-1,2,3-triazol-4-yl)(quinolin-5-yl)methyl)amino)-4-(neopentylamino)quinoline-3-carbonitrile], which EC50 [1, 7] is on record?
Its EC50 is 38 nM.

And the IC50 [2, 8]?
The IC50 was 3 nM.

With `N#Cc1cnc2c(Cl)cc(N[C@H](c3cn(C4COC4)nn3)c3csc(N4CCOCC4)n3)cc2c1Nc1ccc(F)c(Cl)c1` [Example 302, (S)-8-chloro-4-((3-chloro-4-fluoro-phenyl)amino)-6-(((2-morpholinothiazol-4-yl)(1-(oxetan-3-yl)-1H-1,2,3-triazol-4-yl)methyl)amino)quinoline-3-carbonitrile] as the compound, how does the EC50 [1, 5] read?
Its EC50 is 472 nM.

And the IC50 [2, 6]?
The IC50 was 10 nM.

For `N#CCC[C@@H](Nc1c(C#N)cnc2c(C#N)cc(N[C@H](c3cn(C4CC4)nn3)c3csc4c3CCN(C3COC3)C4)cc12)c1ccccc1` [Example 414, 4-(((R)-3-cyano-1-phenylpropyl)amino)-6-(((S)-(1-cyclopropyl-1H-1,2,3-triazol-4-yl)(6-(oxetan-3-yl)-4,5,6,7-tetrahydro-thieno[2,3-c]pyridin-3-yl)methyl)amino)-quinoline-3,8-dicarbonitrile], which EC50 [1, 5] is on record?
Its EC50 is 35 nM.

And the IC50 [2, 6]?
Its IC50 is 1 nM.

What does the source list for `CCN1CCC(n2cc([C@@H](Nc3cc(Cl)c4ncc(C#N)c(Nc5ccc(F)c(Cl)c5)c4c3)c3cncs3)nn2)CC1` [Example 378, (R)-8-chloro-4-((3-chloro-4-fluoro-phenyl)amino)-6-(((1-(1-ethylpiperidin-4-yl)-1H-1,2,3-triazol-4-yl)(thiazol-5-yl)methyl)amino)quinoline-3-carbonitrile]?
EC50 [1, 5]: 168 nM; IC50 [2, 6]: 2 nM

How did the EC50 [1, 5] turn out when `CC(C)(C)CNc1c(C#N)cnc2c(Cl)cc(N[C@H](c3cn(C4(C(F)(F)F)CC4)nn3)c3cnn4ncccc34)cc12` [Example 493, (S)-8-chloro-4-(neopentylamino)-6-((pyrazolo[1,5-b]pyridazin-3-yl(1-(1-(trifluoromethyl)cyclopropyl)-1H-1,2,3-triazol-4-yl)methyl)amino)quinoline-3-carbonitrile] was run?
Its EC50 is 1000 nM.

And the IC50 [2, 6]?
Its IC50 is 31 nM.

With `Cc1nc(F)ccc1[C@H](Nc1cc(Cl)c2ncc(C#N)c(NCC(C)(C)C(F)(F)F)c2c1)c1cn(C2(C(F)(F)F)CC2)nn1` [Example 721, (S)-8-chloro-6-(((6-fluoro-2-methylpyridin-3-yl)(1-(1-(trifluoromethyl)cyclopropyl)-1H-1,2,3-triazol-4-yl)methyl)amino)-4-((3,3,3-trifluoro-2,2-dimethylpropyl)amino)quinoline-3-carbonitrile] as the compound, how does the EC50 [1, 5] read?
Its EC50 is 109 nM.

And the IC50 [2, 6]?
The IC50 was 6 nM.

What does the source list for `[2H]C([2H])(Nc1c(C#N)cnc2c(Cl)cc(N[C@H](c3cn(C4(C(F)F)CC4)nn3)c3ccc(F)nc3C)cc12)C(C)(C)C` [Example 501, (S)-8-chloro-6-(((1-(1-(difluoromethyl)-cyclopropyl)-1H-1,2,3-triazol-4-yl)(6-fluoro-2-methylpyridin-3-yl)methyl)amino)-4-((2,2-dimethylpropyl-1,1-d2)amino)-quinoline-3-carbonitrile]?
EC50 [1, 5]: 55 nM; IC50 [2, 6]: 3 nM

Which results are given for `CCN1CCc2c([C@H](Nc3cc(Cl)c4ncc(C#N)c(Nc5ccc(F)c(Cl)c5)c4c3)c3cn(C4COC4)nn3)csc2C1` [Example 278, (S)-8-chloro-4-((3-chloro-4-fluorophenyl)amino)-6-(((6-ethyl-4,5,6,7-tetrahydro-thieno[2,3-c]pyridin-3-yl)(1-(oxetan-3-yl)-1H-1,2,3-triazol-4-yl)methyl)amino)quinoline-3-carbonitrile]?
EC50 ([1]; Homo sapiens, Monocyte, read-out: EC50 TNF): 269 nM; IC50 [2]: 3 nM

Which EC50 ([1]; read-out: EC50 TNF, LPS-stimulated human monocytes, TNFα TR-FRET) does the source give for “(S)-6-(((1-(1,1′-bi(cyclopropan)]-1-yl)-1H- 1,2,3-triazol-4-yl)(1-methoxylsoquinolin- 5-yl)methyl)amino)-8-chloro-4- (neopentylamino)quinoline-3-carbonitrile [Example 931]” here?
The EC50 was 134 nM.

And the IC50 ([2]; read-out: IC50 HTRF, Cot HTRF (TR-FRET KinEASE) biochemical assay, 400 μM ATP)?
Its IC50 is 10 nM.

`CC(C)(C)CNc1c(C#N)cnc2c(Cl)cc(N[C@H](c3cn(C4(C(F)(F)F)CC4)nn3)c3cccc4cnccc34)cc12` [Example 462, (S)-8-chloro-6-((isoquinolin-5-yl(1-(1-(trifluoromethyl)cyclopropyl)-1H-1,2,3-triazol-4-yl)methyl)amino)-4-(neopentylamino)quinoline-3-carbonitrile] was tested. Which EC50 [1, 5] did it give?
Its EC50 is 8770 nM.

And the IC50 [2, 6]?
The IC50 was 162 nM.

Which EC50 [1, 3] does the source give for `Cc1nc(F)ccc1[C@H](Nc1cc(C#N)c2ncc(C#N)c(NCC(C)(C)C(F)(F)F)c2c1)c1cn(C(C)(C)C)nn1` [Example 827, (S)-6-(((1-(tert-butyl)-1H-1,2,3-triazol-4-yl)(6-fluoro-2-methylpyridin-3-yl)methyl)amino)-4-((3,3,3-trifluoro-2,2-dimethylpropyl)amino)quinoline-3,8-dicarbonitrile] here?
Its EC50 is 38 nM.

And the IC50 [2, 4]?
The IC50 was 2 nM.

What does the source list for `COc1ccc([C@H](Nc2cc(Cl)c3ncc(C#N)c(NCC(C)(C)C)c3c2)c2cn(C3(C(F)(F)F)CC3)nn2)cn1` [Example 805, (S)-8-chloro-6-(((6-methoxypyridin-3-yl)(1-(1-(trifluoromethyl)cyclopropyl)-1H-1,2,3-triazol-4-yl)methyl)amino)-4-(neopentylamino)quinoline-3-carbonitrile]?
EC50 [1, 3]: 778 nM; IC50 [2, 4]: 28 nM

`Cc1ccc([C@H](Nc2cc(C#N)c3ncc(C#N)c(NCC(C)(C)C)c3c2)c2cn(C3(C(F)(F)F)CC3)nn2)cn1` [Example 828, (S)-6-(((6-methylpyridin-3-yl)(1-(1-(trifluoromethyl)cyclopropyl)-1H-1,2,3-triazol-4-yl)methyl)amino)-4-(neopentylamino)quinoline-3,8-dicarbonitrile] was tested. Which EC50 [1, 3] did it give?
The EC50 was 253 nM.

And the IC50 [2, 4]?
Its IC50 is 22 nM.

For `Cc1nc(F)ccc1[C@H](Nc1cc(Cl)c2ncc(C#N)c(NCC34CC(C3)C4)c2c1)c1cn(C2(C(F)F)CC2)nn1` [Example 739, (S)-4-((bicyclo[1.1.1]pentan-1-ylmethyl)amino)-8-chloro-6-(((1-(1-(difluoromethyl)cyclopropyl)-1H-1,2,3-triazol-4-yl)(6-fluoro-2-methylpyridin-3-yl)methyl)amino)quinoline-3-carbonitrile], which EC50 [1, 5] is on record?
The EC50 was 254 nM.

And the IC50 [2, 6]?
The IC50 was 21 nM.

What does the source list for `CC(C)(C)CNc1c(C#N)cnc2c(Cl)cc(N[C@H](c3cn(C4(C(F)(F)F)CC4)nn3)c3csc4cnccc34)cc12` [Example 741, (S)-8-chloro-4-(neopentylamino)-6-((thieno[2,3-c]pyridin-3-yl(1-(1-(trifluoromethyl)cyclopropyl)-1H-1,2,3-triazol-4-yl)methyl)amino)quinoline-3-carbonitrile]?
EC50 [1, 5]: 120 nM; IC50 [2, 6]: 6 nM

Which results are given for `CC(C)(C)CNc1c(C#N)cnc2c(C#N)cc(N[C@@H](c3cn(C4CC4)nn3)c3cccc4ncsc34)cc12` [Example 410, (R)-6-((benzo[d]thiazol-7-yl(1-cyclopropyl-1H-1,2,3-triazol-4-yl)methyl)amino)-4-(neopentyl-amino)quinoline-3,8-dicarbonitrile]?
EC50 [1, 5]: 1000 nM; IC50 [2, 6]: 113 nM

Which EC50 [1, 7] does the source give for `Cc1ccc([C@H](Nc2cc(C#N)c3ncc(C#N)c(NCC(C)(C)C)c3c2)c2cn(C3(C(F)(F)F)CC3)nn2)c(C)n1` [Example 689, (S)-6-(((2,6-dimethylpyridin-3-yl)(1-(1′-(trifluoromethyl)cyclopropyl)-1H-1,2,3-triazol-4-yl)methyl)amino)-4-(neopentylamino)quinoline-3,8-dicarbonitrile] here?
Its EC50 is 81 nM.

And the IC50 [2, 8]?
The IC50 was 9 nM.

Which EC50 [1, 5] does the source give for `Cn1ccc2c([C@H](Nc3cc(C#N)c4ncc(C#N)c(NCC(C)(C)C)c4c3)c3cn(C4(C(F)(F)F)CC4)nn3)cccc2c1=O` [Example 631, (S)-6-(((2-methyl-1-oxo-1,2-dihydroisoquinolin-5-yl)(1-(1-(trifluoromethyl)-cyclopropyl)-1H-1,2,3-triazol-4-yl)methyl)amino)-4-(neopentylamino)quinoline-3,8-dicarbonitrile] here?
Its EC50 is 32 nM.

And the IC50 [2, 6]?
The IC50 was 2 nM.

For `Cc1nc(F)ccc1[C@H](Nc1cc(Cl)c2ncc(C#N)c(NCC(C)(C)C)c2c1)c1cn(C2(C(F)F)CC2)nn1` [Example 447, (S)-8-chloro-6-(((1-(1-(difluoromethyl)-cyclopropyl)-1H-1,2,3-triazol-4-yl)(6-fluoro-2-methylpyridin-3-yl)methyl)-amino)-4-(neopentylamino)quinoline-3-carbonitrile], which EC50 [1, 5] is on record?
The EC50 was 40 nM.

And the IC50 [2, 6]?
The IC50 was 2 nM.
